Experimental data: ChEMBL document CHEMBL1126980, “New, potent anthelmintic and acaricidal agents: 4-deoxy-4-thio-substituted avermectin derivatives” (Bioorg Med Chem Lett, 1993)
Values after ≈ are worked out from the molar mass of the structure shown.

What was measured:
Ovis aries [1] = experiment: Tested for anthelmintic efficacy against Haemonchus contortus at 0.1 mg/kg; range is 91-100%; assay type: functional
[2] = tested on: Trichostrongylus colubriformis; experiment: Tested in vivo for the biological efficacy using Trichostrongylus colubriformis gerbil assay; assay type: functional
Ovis aries [3] = experiment: Tested for the anthelmintic efficacy against Trichostrongylus axei at 0.1 mg/kg; range is 91-100%; assay type: functional
Tetranychus urticae = experiment: Tested for acaricidal efficacy using a Tetranychus urticae (two-spotted spider mite, TSSM) contact assay; assay type: functional; set-up: concentration or dose not given beside the values
Caenorhabditis elegans = experiment: Tested in vitro for the biological efficacy using Caenorhabditis elegans binding assay; assay type: functional, organism-based
Ovis aries [4] = experiment: Tested for the anthelmintic efficacy against Oesphagostomum columbianum at 0.1 mg/kg; range is 91-100%; assay type: functional
Ovis aries [5] = experiment: Tested for the anthelmintic efficacy against Cooperia curticei at 0.1 mg/kg; range is 51-75%; assay type: functional
Artemia salina = experiment: Tested in vitro for the biological efficacy using Artemia salina (brine shrimp) immobilization assay; assay type: functional
Ovis aries [6] = experiment: Tested for the anthelmintic efficacy against Ostertagia circumcincta at 0.1 mg/kg; range is 91-100%; assay type: functional
Ovis aries [7] = experiment: Tested for the anthelmintic efficacy against Trichostrongylus colubriformis at 0.1 mg/kg; range is 76-90%; assay type: functional
Ovis aries [8] = experiment: Tested for the anthelmintic efficacy against Trichostrongylus colubriformis at 0.1 mg/kg; range is 91-100%; assay type: functional
Ovis aries [9] = experiment: Tested for the anthelmintic efficacy against Trichostrongylus axei at 0.1 mg/kg; range is 76-90%; assay type: functional
Ovis aries [10] = experiment: Tested for the anthelmintic efficacy against Cooperia curticei at 0.1 mg/kg; assay type: functional
Ovis aries [11] = experiment: Tested for the anthelmintic efficacy against Cooperia curticei at 0.1 mg/kg; range is 91-100%; assay type: functional
Ovis aries [12] = experiment: Tested for the anthelmintic efficacy against Ostertagia circumcincta at 0.1 mg/kg; range is 76-90%; assay type: functional
Ovis aries [13] = experiment: Tested for the anthelmintic efficacy against Trichostrongylus colubriformis at 0.1 mg/kg; range is 51-75%; assay type: functional
Ovis aries [14] = experiment: Tested for the anthelmintic efficacy against Ostertagia circumcincta at 0.1 mg/kg; range is 51-75%; assay type: functional
Ovis aries [15] = experiment: Tested for the anthelmintic efficacy against Cooperia curticei at 0.1 mg/kg; range is 76-90%; assay type: functional
Ovis aries [16] = experiment: Tested for anthelmintic efficacy against Haemonchus contortus at 0.15 mg/kg; range is 76-90%; assay type: functional
Ovis aries [17] = experiment: Tested for the anthelmintic efficacy against Trichostrongylus axei at 0.15 mg/kg; range is 91-100%; assay type: functional
Ovis aries [18] = experiment: Tested for the anthelmintic efficacy against Ostertagia circumcincta at 0.15 mg/kg; range is 76-90%; assay type: functional
Ovis aries [19] = experiment: Tested for the anthelmintic efficacy against Oesphagostomum columbianum at 0.15 mg/kg; assay type: functional
Ovis aries [20] = experiment: Tested for the anthelmintic efficacy against Trichostrongylus colubriformis at 0.15 mg/kg; range is 91-100%; assay type: functional
Ovis aries [21] = experiment: Tested for the anthelmintic efficacy against Cooperia curticei at 0.15 mg/kg; range is 91-100%; assay type: functional

SMILES | Reduction (Ovis aries [1]) [%] | ED85 [2] [mg/kg] | Reduction (Ovis aries [3]) [%] | Mortality (Tetranychus urticae) [%] | IC50 (Caenorhabditis elegans) [ng/mL] | Reduction (Ovis aries [4]) [%] | IC100 (Artemia salina) [ng/mL] | Reduction (Ovis aries [6]) [%] | Reduction (Ovis aries [8]) [%] | Reduction (Ovis aries [11]) [%] | also measured
CCC(C)[C@H]1O[C@]2(C=C[C@@H]1C)C[C@@H]1C[C@@H](C/C=C(\C)[C@@H](O[C@H]3C[C@H](OC)[C@@H](O[C@H]4C[C@H](OC)[C@H](S(=O)(=O)CCO)[C@H](C)O4)[C@H](C)O3)[C@@H](C)/C=C/C=C3\CO[C@@H]4[C@H](O)C(C)=C[C@@H](C(=O)O1)[C@]34O)O2 (some centres not stated) | 91 | 0.063 | 91 | 34 | 0.363 (≈ 0.376 nM) | 91 | 870 | 91 |  |  | Reduction (Ovis aries [5]): 51%; Reduction (Ovis aries [7]): 76%
CCC(C)[C@H]1O[C@]2(C=C[C@@H]1C)C[C@@H]1C[C@@H](C/C=C(\C)[C@@H](O[C@H]3C[C@H](OC)[C@@H](O[C@H]4C[C@H](OC)[C@H](SCCOC(C)=O)[C@H](C)O4)[C@H](C)O3)[C@@H](C)/C=C/C=C3\CO[C@@H]4[C@H](O)C(C)=C[C@@H](C(=O)O1)[C@]34O)O2 (some centres not stated) | 91 | 0.125 |  | 68 | 0.525 (≈ 0.538 nM) | 91 | 1730 | 91 | 91 |  | Reduction (Ovis aries [9]): 76%; Reduction (Ovis aries [10]): <50%
CCC(C)[C@H]1O[C@]2(C=C[C@@H]1C)C[C@@H]1C[C@@H](C/C=C(\C)[C@@H](O[C@H]3C[C@H](OC)[C@@H](O[C@H]4C[C@H](OC)[C@@H](S(C)(=O)=O)[C@H](C)O4)[C@H](C)O3)[C@@H](C)/C=C/C=C3\CO[C@@H]4[C@H](O)C(C)=C[C@@H](C(=O)O1)[C@]34O)O2 (some centres not stated) | 91 | 0.125 | 91 | 85 | 0.098 (≈ 0.105 nM) | 91 | 430 |  | 91 | 91 | Reduction (Ovis aries [12]): 76%
CCC(C)[C@H]1O[C@]2(C=C[C@@H]1C)C[C@@H]1C[C@@H](C/C=C(\C)[C@@H](O[C@H]3C[C@H](OC)[C@H](SCCNC(C)=O)[C@H](C)O3)[C@@H](C)/C=C/C=C3\CO[C@@H]4[C@H](O)C(C)=C[C@@H](C(=O)O1)[C@]34O)O2 (some centres not stated) | 91 | 0.063 | 91 |  |  | 91 | 430 | 91 | 91 |  | Reduction (Ovis aries [10]): <50%
CCC(C)[C@H]1O[C@]2(C=C[C@@H]1C)C[C@@H]1C[C@@H](C/C=C(\C)[C@@H](O[C@H]3C[C@H](OC)[C@@H](O[C@H]4C[C@H](OC)[C@H](SCCNC(C)=O)[C@H](C)O4)[C@H](C)O3)[C@@H](C)/C=C/C=C3\CO[C@@H]4[C@H](O)C(C)=C[C@@H](C(=O)O1)[C@]34O)O2 (some centres not stated) | 91 | 0.031 | 91 | 29 | 0.127 (≈ 0.13 nM) | 91 | 870 | 91 |  | 91 | Reduction (Ovis aries [13]): 51%
CCC(C)[C@H]1O[C@]2(C=C[C@@H]1C)C[C@@H]1C[C@@H](C/C=C(\C)[C@@H](O[C@H]3C[C@H](OC)[C@@H](O[C@H]4C[C@H](OC)[C@H](S(C)(=O)=O)[C@H](C)O4)[C@H](C)O3)[C@@H](C)/C=C/C=C3\CO[C@@H]4[C@H](O)C(C)=C[C@@H](C(=O)O1)[C@]34O)O2 (some centres not stated) | 91 | 0.063 | 91 | 45 | 0.132 (≈ 0.141 nM) | 91 | 430 | 91 | 91 | 91 | 
CCC(C)[C@H]1O[C@]2(C=C[C@@H]1C)C[C@@H]1C[C@@H](C/C=C(\C)[C@@H](O[C@H]3C[C@H](OC)[C@@H](O[C@H]4C[C@H](OC)[C@H](SCCO)[C@H](C)O4)[C@H](C)O3)[C@@H](C)/C=C/C=C3\CO[C@@H]4[C@H](O)C(C)=C[C@@H](C(=O)O1)[C@]34O)O2 (some centres not stated) | 91 | 0.063 | 91 | 55 | 0.784 (≈ 0.84 nM) | 91 | 650 | 91 |  |  | Reduction (Ovis aries [7]): 76%; Reduction (Ovis aries [10]): <50%
CCC(C)[C@H]1O[C@]2(C=C[C@@H]1C)C[C@@H]1C[C@@H](C/C=C(\C)[C@@H](O[C@H]3C[C@H](OC)[C@@H](O[C@H]4C[C@H](OC)[C@@H](SC)[C@H](C)O4)[C@H](C)O3)[C@@H](C)/C=C/C=C3\CO[C@@H]4[C@H](O)C(C)=C[C@@H](C(=O)O1)[C@]34O)O2 (some centres not stated) | 91 | 0.25 |  | 98 | 0.226 (≈ 0.25 nM) | 91 | 3470 |  |  |  | Reduction (Ovis aries [13]): 51%; Reduction (Ovis aries [14]): 51%; Reduction (Ovis aries [9]): 76%; Reduction (Ovis aries [15]): 76%
CCC(C)[C@H]1O[C@]2(C=C[C@@H]1C)C[C@@H]1C[C@@H](C/C=C(\C)[C@@H](O[C@H]3C[C@H](OC)[C@@H](O[C@H]4C[C@H](OC)[C@H](SC)[C@H](C)O4)[C@H](C)O3)[C@@H](C)/C=C/C=C3\CO[C@@H]4[C@H](O)C(C)=C[C@@H](C(=O)O1)[C@]34O)O2 (some centres not stated) | 91 | 0.063 | 91 | 92 | 0.06 (≈ 0.0664 nM) | 91 | 1730 |  |  | 91 | Reduction (Ovis aries [7]): 76%; Reduction (Ovis aries [12]): 76%
CCC(C)[C@H]1O[C@]2(C=C[C@@H]1C)C[C@@H]1C[C@@H](C/C=C(\C)[C@@H](O[C@H]3C[C@H](OC)[C@H](S(=O)(=O)CCO)[C@H](C)O3)[C@@H](C)/C=C/C=C3\CO[C@@H]4[C@H](O)C(C)=C[C@@H](C(=O)O1)[C@]34O)O2 (some centres not stated) |  | > 0.25 |  | 94 |  |  | 870 |  |  |  | Reduction (Ovis aries [16]): 76%; Reduction (Ovis aries [17]): 91%; Reduction (Ovis aries [18]): 76%; Reduction (Ovis aries [19]): <50%; Reduction (Ovis aries [20]): 91%; Reduction (Ovis aries [21]): 91%
CCC(C)[C@H]1O[C@]2(C=C[C@@H]1C)C[C@@H]1C[C@@H](C/C=C(\C)[C@@H](O[C@H]3C[C@H](OC)[C@@H](O[C@H]4C[C@H](OC)[C@@H](O)[C@H](C)O4)[C@H](C)O3)[C@@H](C)/C=C/C=C3\CO[C@@H]4[C@H](O)C(C)=C[C@@H](C(=O)O1)[C@]34O)O2 (some centres not stated) [AVERMECTIN] | 91 | 0.031 | 91 | 95 | 0.073 (≈ 0.0836 nM) | 91 | 400 | 91 | 91 | 91 | 
